Test results reported in article PMC11203436, “Hell’s Gate Globin-I from Methylacidiphilum infernorum Displays a Unique Temperature-Independent pH Sensing Mechanism Utililized a Lipid-Induced Conformational Change” (International Journal of Molecular Sciences, 2024).

Tests used:
[1] = target: T1, Hell's Gate globin-I (HGb-I) (Candidatus Methylacidiphilum infernorum, UniProt B3DUZ7); test: optical (absorbance) titration of ferric protein at pH […] °C; assay type: binding
T1 construct: gene hmp
T1 sequence (B3DUZ7 1-133): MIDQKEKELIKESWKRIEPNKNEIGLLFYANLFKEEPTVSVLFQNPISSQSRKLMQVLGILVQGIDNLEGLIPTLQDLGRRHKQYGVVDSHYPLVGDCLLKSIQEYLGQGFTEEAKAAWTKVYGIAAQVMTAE

[2] = target: T1, Hell's Gate globin-I (HGb-I); test: optical (absorbance) titration of ferric protein at pH […] °C; supported by EPR and stopped flow; assay type: binding
[3] = target: T1, Hell's Gate globin-I (HGb-I); test: stopped-flow CO binding kinetics; optical spectrum of ferrous-CO form

CCCCCCCCCCCCCCCC(=O)O [palmitate]
Kd [1]: 9.88 µM

CCCCCCCC/C=C\CCCCCCCC(=O)O [oleate]
Kd [2]: 0.73 µM

[C-]#[O+] [carbon monoxide]
stopped-flow CO binding kinetics; optical spectrum of ferrous-CO form [3]: In the absence of oleate, the CO binding to the hexacoordinate form is slow and reaches a plateau
